The values that follow come from ChEMBL document CHEMBL4823308, “Optimization of Triarylpyridinone Inhibitors of the Main Protease of SARS-CoV-2 to Low-Nanomolar Antiviral Potency” (ACS Med Chem Lett, 2021).

Each structure is given as a SMILES string. Values after ≈ are worked out from the molar mass of the structure shown.

The nature of data set [1]: in vitro. As to conditions: chlorocebus sabaeus, Vero E6 cells; call rule not given here.
Data set [2] in a line: in vitro. As to conditions: human, 16HBE14o- cells.
Description: (§1) Cytotoxicity against human 16HBE14o- after 72 hrs by MTT assay
Data set [3] in a line: Aqueous solubility of the compound in Britton-Robinson buffer at pH 6.5 after 48 hrs by shake flask method. In kind it is physicochemical.
For data set [4] the following is noted: pampa, pH 7.4, 18 h.
Description: (§2) Permeability of compound in PBS at pH 7.4 after 18 hrs by PAMPA
The next data set deals with Vero C1008. As to conditions: chlorocebus sabaeus, vero c1008, 72 h.
Another data set relates to 16HBE14o-. As to conditions: human, 72 h.
The next data set deals with SARS-CoV-2. The following applies: 16hbe14o-.
The nature of data set [5]: in vitro. The following applies: PAMPA, pH 7.4. On the technique in general: The PAMPA barrier holds no transporters, so it reflects passive diffusion.
Description: as §2

Description for 16HBE14o-: as §1
Description for SARS-CoV-2: Antiviral activity against SARS-CoV-2 infected in 16HBE14o- cells assessed as inhibition of viral replication after 1 day by Nano-Glo luciferase assay
Description for Vero C1008: Cytotoxicity against African green monkey Vero E6 cells after 72 hrs by MTT assay

On to `CCC(CC)COC(=O)[C@H](C)N[P@](=O)(OC[C@H]1O[C@@](C#N)(c2ccc3c(N)ncnn23)[C@H](O)[C@@H]1O)Oc1ccccc1`, for which the CC50 at 72 h in “in vitro [1]” was determined as 72 µM; in the data set “in vitro [2]”, 41 µM.

Consider `CCCOc1cc(Cl)cc(-c2cc(-c3ccccc3C#N)cn(-c3cccnc3)c2=O)c1`, for which the CC50 at 72 h in “in vitro [1]” worked out at 22 µM; in “in vitro [2]” it was 20 µM.

Take `N#Cc1ccccc1-c1cc(-c2cc(Cl)cc(OCCC(F)(F)F)c2)c(=O)n(-c2cccnc2)c1`: the solubility (thermodynamic) at 48 h in data set [3] is 25 µg/mL (≈ 50.4 µM). For the same molecule, the permeability in data set [4] is given as 4 10^-6 cm/s. In addition, the CC50 at 72 h in the data set “in vitro [1]” was determined as 22 µM; in the data set “in vitro [2]”, 25 µM.

For `N#Cc1ccccc1-c1cc(-c2cc(Cl)cc(OCC3CC3)c2)c(=O)n(-c2cccnc2)c1`, the solubility (thermodynamic) at 48 h in data set [3] came to 3 µg/mL (≈ 6.61 µM). In data set [4], the permeability is 4.27 10^-6 cm/s. The CC50 at 72 h in the data set “in vitro [1]” and in the data set “in vitro [2]” was > 100 µM in each case.

For the molecule `Cn1cc(-c2cc(-c3cc(Cl)c(F)c(OCc4ccccc4Cl)c3)c(=O)n(-c3cccnc3)c2)c(=O)[nH]c1=O`, in data set [3], the thermodynamic solubility at 48 h was determined as 116 µg/mL (≈ 206 µM). Moreover, in the data set with Vero C1008, the CC50 was > 32.5 µM. For the same molecule, the CC50 at 72 h in “in vitro [2]” was > 32.5 µM.

The molecule `Cc1ncoc1COc1cc(Cl)cc(-c2cc(-c3c[nH]c(=O)[nH]c3=O)cn(-c3cccnc3)c2=O)c1` had a solubility (thermodynamic) at 48 h in data set [3] of 168 µg/mL (≈ 333 µM). Also, in data set [4], the permeability was 0.24 10^-6 cm/s.

Turning to `Cn1cc(-c2cc(-c3cc(Cl)cc(OCc4scnc4C(F)(F)F)c3)c(=O)n(-c3cccnc3)c2)c(=O)[nH]c1=O`, the solubility (thermodynamic) at 48 h in data set [3] was determined as 24.8 µg/mL (≈ 42.2 µM). In addition, in data set [4], the permeability is 1.16 10^-6 cm/s. Moreover, the CC50 with Vero C1008 was > 100 µM. The CC50 at 72 h in “in vitro [2]” was > 100 µM.

As to `Cc1scnc1COc1cc(Cl)cc(-c2cc(-c3c[nH]c(=O)[nH]c3=O)cn(-c3cccnc3)c2=O)c1`, the CC50 in the data set on Vero C1008 is > 100 µM; with 16HBE14o-, 22 µM.

Take `O=c1[nH]cc(-c2cc(-c3cc(Cl)c(F)c(OCc4ccccc4Cl)c3)c(=O)n(-c3cccnc3)c2)c(=O)[nH]1`: the solubility (thermodynamic) at 48 h in data set [3] was determined as 21.8 µg/mL (≈ 39.5 µM). Moreover, the permeability in data set [4] was 0.73 10^-6 cm/s. Further, in the data set with Vero C1008, the CC50 is > 80 µM. Moreover, the CC50 at 72 h in “in vitro [2]” is > 95 µM.

In data set [3], `Cc1ocnc1COc1cc(Cl)cc(-c2cc(-c3ccccc3C#N)cn(-c3cccnc3)c2=O)c1` registered a thermodynamic solubility at 48 h of 13.1 µg/mL (≈ 26.5 µM). Moreover, the permeability in data set [4] is given as 3.04 10^-6 cm/s.

Molecule `Cn1cc(-c2cc(-c3cc(Cl)cc(OCC4CC4)c3)c(=O)n(-c3cccnc3)c2)c(=O)[nH]c1=O` came in with a solubility (thermodynamic) at 48 h in data set [3] of 14.2 µg/mL (≈ 29.8 µM). In data set [4], the permeability is recorded as 3.25 10^-6 cm/s. Besides, the CC50 in the data set on Vero C1008 is 82 µM. The CC50 at 72 h in “in vitro [2]” was > 100 µM.

Turning to `Cn1cc(-c2cc(-c3cc(Cl)cc(OCc4ocnc4C(F)(F)F)c3)c(=O)n(-c3cccnc3)c2)c(=O)[nH]c1=O`, the thermodynamic solubility at 48 h in data set [3] is 34.5 µg/mL (≈ 60.3 µM). In addition, the permeability in data set [4] is recorded as 1.03 10^-6 cm/s.

`Cn1cc(-c2cc(-c3cc(Cl)cc(OCCC(F)(F)F)c3)c(=O)n(-c3cccnc3)c2)c(=O)[nH]c1=O` gave a solubility (thermodynamic) at 48 h in data set [3] of 57 µg/mL (≈ 110 µM). Also, the permeability in data set [4] is given as 2.26 10^-6 cm/s. Further, the CC50 with Vero C1008 was > 100 µM. The CC50 at 72 h in “in vitro [2]” was found to be 95 µM.

Turning to `O=c1[nH]cc(-c2cc(-c3cc(Cl)cc(OCc4scnc4C(F)(F)F)c3)c(=O)n(-c3cccnc3)c2)c(=O)[nH]1`, the EC50 entry with SARS-CoV-2 is “Not Active”. Also, in the data set on Vero C1008, the CC50 was > 100 µM. In addition, in the data set “in vitro [2]”, the CC50 at 72 h is > 100 µM.

For `O=c1[nH]cc(-c2cc(-c3cc(Cl)cc(OCc4ocnc4C(F)(F)F)c3)c(=O)n(-c3cccnc3)c2)c(=O)[nH]1`, the permeability in data set [4] is 0.57 10^-6 cm/s. The EC50 entry with SARS-CoV-2 is “Not Active”. Moreover, in the data set with Vero C1008, the CC50 is > 100 µM. In addition, the CC50 at 72 h in the data set “in vitro [2]” is > 100 µM.

Molecule `Cc1ocnc1COc1cc(Cl)cc(-c2cc(-c3c[nH]c(=O)[nH]c3=O)cn(-c3cccnc3)c2=O)c1` gave a thermodynamic solubility at 48 h in data set [3] of 7.6 µg/mL (≈ 15.1 µM).

The molecule `O=C(N[C@H](CO)[C@H](O)c1ccc([N+](=O)[O-])cc1)C(Cl)Cl` [CHLORAMPHENICOL] returned a Papp at 18 h in “in vitro [5]” of 5 ×10⁻⁶ cm/s.

Molecule `Cn1c(=O)c2[nH]cnc2n(C)c1=O.O` [THEOPHYLLINE] gave a Papp at 18 h in “in vitro [5]” of 0.3 ×10⁻⁶ cm/s. This Papp at 18 h is about 17-fold lower than that of the molecule before.

For orientation: thermodynamic solubility means the concentration in solution at equilibrium with solid. As usually defined, the Papp is a coefficient for how fast a substance crosses the barrier.
